# Calls of active or inactive are those of the source. No cut-off for these calls is given here.
# Key:
# [1] = biological target: T1, Glucose-6-phosphate 1-dehydrogenase (Homo sapiens, UniProt P11413); assay: Inhibition of G6PD (unknown origin) assessed as reduction in 6-phospho-D-glucono-1,5-lactone and NADPH production using glucose-6-phosphate and NADP+ as substrate incubated for 15 mins by UV absorption photometry assay
# [2] = biological target: T1, Glucose-6-phosphate 1-dehydrogenase; assay: Non-competitive inhibition of G6PD (unknown origin) using varying concentrations of G6P and NADP+ as substrate by Michaelis-Menten analysis
# OVCAR-3 = assay: Inhibition of colony formation in human OVCAR-3 cells overexpressing G6PD incubated for 14 days by crystal violet staining based assay; type: functional, cell-based
# [3] = biological target: T1, Glucose-6-phosphate 1-dehydrogenase; assay: Competitive inhibition of G6PD (unknown origin) using varying concentrations of G6P and NADP+ as substrate by Michaelis-Menten analysis
# [4] = biological target: T1, Glucose-6-phosphate 1-dehydrogenase; assay: Non-competitive inhibition of G6PD (unknown origin) using glucose-6-phosphate and varying concentrations of NADP+ as substrate by Michaelis-Menten analysis
# [5] = biological target: T1, Glucose-6-phosphate 1-dehydrogenase; assay: Reversible inhibition of G6PD (unknown origin) using glucose-6-phosphate and NADP+ as substrate measured after dilution of 12XIC50 to 0.6XIC50 by dilution based analysis
# [6] = biological target: T1, Glucose-6-phosphate 1-dehydrogenase; assay: Competitive inhibition of G6PD (unknown origin) using glucose-6-phosphate and varying concentrations of NADP+ as substrate by Michaelis-Menten analysis
# [7] = biological target: T1, Glucose-6-phosphate 1-dehydrogenase; assay: Inhibition of G6PD in human OVCAR-3 cells assessed as thermal instability of the enzyme by CETSA analysis; type: cell-based
# [8] = biological target: T1, Glucose-6-phosphate 1-dehydrogenase; assay: Binding affinity to G6PD (unknown origin) assessed as equilibrium dissociation constant by surface plasmon resonance assay
# T1 sequence (P11413 whole entry): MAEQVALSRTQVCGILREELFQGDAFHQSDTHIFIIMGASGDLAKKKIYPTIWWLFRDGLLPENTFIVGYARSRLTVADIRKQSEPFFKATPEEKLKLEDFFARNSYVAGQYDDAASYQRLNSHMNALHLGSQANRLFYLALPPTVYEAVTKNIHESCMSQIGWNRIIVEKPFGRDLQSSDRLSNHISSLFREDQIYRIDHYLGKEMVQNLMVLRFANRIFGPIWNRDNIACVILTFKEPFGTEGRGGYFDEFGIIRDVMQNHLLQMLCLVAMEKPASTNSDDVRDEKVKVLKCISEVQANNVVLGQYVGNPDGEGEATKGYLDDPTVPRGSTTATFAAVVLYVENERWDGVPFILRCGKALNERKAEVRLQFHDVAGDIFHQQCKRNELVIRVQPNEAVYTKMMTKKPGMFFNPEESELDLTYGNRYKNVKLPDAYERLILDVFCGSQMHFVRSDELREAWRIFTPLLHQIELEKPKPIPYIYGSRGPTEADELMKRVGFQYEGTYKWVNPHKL
compound,measurement,setting,value
C[C@]12CC[C@H](O)CC1=CC[C@@H]1[C@@H]2CC[C@]2(C)C(=O)CC[C@@H]12 [PRASTERONE],IC50,[1],12.5 µM
O=C(/C=C/c1ccc(O)c(O)c1)O[C@@H]1C[C@](O)(C(=O)O)C[C@@H](OC(=O)/C=C/c2ccc(O)c(O)c2)[C@H]1O,IC50,[1],37.7 µM
OC[C@H]1O[C@@H](Oc2cc(O)cc(/C=C/c3ccc(O)cc3)c2)[C@H](O)[C@@H](O)[C@@H]1O [PICEID],IC50,[1],74.5 µM
COc1cc(O)c2c(c1)oc(=O)c1c3cc(O)c(O)cc3oc21 [WEDELOLACTONE],Ki,[2],9.94 µM
same,IC50,[1],5.18 µM
same,EC50,"OVCAR-3; OVCAR-3, 336 h",10.6 µM
same,inhibition,OVCAR-3; time 14.0 day,Dose-Dependent Effect
same,Ki,[3],2.54 µM
same,Ki,[4],5.79 µM
same,inhibition,[5],Active
same,Ki,[6],1.19 µM
same,inhibition,[7],Active
same,Kd,[8],3.64 µM
O=c1c(O)c(-c2ccc(O)c(O)c2)oc2cc(O)cc(O)c12,IC50,[1],31 µM

# From ChEMBL document CHEMBL4813975, “Discovery and characterization of a novel glucose-6-phosphate dehydrogenase (G6PD) inhibitor via high-throughput screening” (Bioorg Med Chem Lett, 2021)
